In ChEMBL document CHEMBL4138265, “Synthesis of a Chloroalkene Dipeptide Isostere-Containing Peptidomimetic and Its Biological Application” (ACS Med Chem Lett, 2018):

What was measured:
Integrin alpha-V/beta-3 [1] = target: T1, Integrin alpha-V/beta-3 (Homo sapiens, UniProt P05106+P06756); experiment: Inhibition of vitronectin binding to human integrin alphaVbeta3 measured after 4 hrs by ELISA; type: protein-complex assay
Integrin alpha-V/beta-3 [2] = target: T1, Integrin alpha-V/beta-3; experiment: Inhibition of vitronectin binding to integrin alphaVbeta3 in HDF pretreated for 20 mins followed by vitronectin addition measured after 40 mins by crystal violet staining based assay; type: protein-complex assay
[3] = Stability in human serum at 1 mM incubated for 15 mins measured up to 180 mins by RP-HPLC method; type: ADME, cell-free; settings: 0.25 h, 1000 µM

T1 sequence (P05106 27-788 limits assumed): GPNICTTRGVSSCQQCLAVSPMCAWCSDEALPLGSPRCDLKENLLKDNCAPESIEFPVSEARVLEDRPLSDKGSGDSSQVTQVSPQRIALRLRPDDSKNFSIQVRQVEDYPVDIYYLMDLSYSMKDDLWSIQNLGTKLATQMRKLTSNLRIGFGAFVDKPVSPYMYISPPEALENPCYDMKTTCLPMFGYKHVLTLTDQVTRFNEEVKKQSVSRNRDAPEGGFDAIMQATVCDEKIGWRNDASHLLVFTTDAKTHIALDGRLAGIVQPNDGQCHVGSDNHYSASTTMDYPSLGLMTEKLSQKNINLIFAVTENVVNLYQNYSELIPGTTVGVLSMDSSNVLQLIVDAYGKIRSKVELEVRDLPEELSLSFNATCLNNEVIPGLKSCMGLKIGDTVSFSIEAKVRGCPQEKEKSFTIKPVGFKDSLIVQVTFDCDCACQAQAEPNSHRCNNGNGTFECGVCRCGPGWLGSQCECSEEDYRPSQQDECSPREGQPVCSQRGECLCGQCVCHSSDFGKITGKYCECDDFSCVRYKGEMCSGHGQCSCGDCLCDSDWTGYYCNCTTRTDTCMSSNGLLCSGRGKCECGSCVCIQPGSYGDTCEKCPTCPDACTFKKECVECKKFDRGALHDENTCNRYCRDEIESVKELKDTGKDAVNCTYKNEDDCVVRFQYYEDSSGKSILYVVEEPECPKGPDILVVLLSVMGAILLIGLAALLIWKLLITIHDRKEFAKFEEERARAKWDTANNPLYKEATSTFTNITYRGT
T1 sequence (P06756 31-889 limits assumed): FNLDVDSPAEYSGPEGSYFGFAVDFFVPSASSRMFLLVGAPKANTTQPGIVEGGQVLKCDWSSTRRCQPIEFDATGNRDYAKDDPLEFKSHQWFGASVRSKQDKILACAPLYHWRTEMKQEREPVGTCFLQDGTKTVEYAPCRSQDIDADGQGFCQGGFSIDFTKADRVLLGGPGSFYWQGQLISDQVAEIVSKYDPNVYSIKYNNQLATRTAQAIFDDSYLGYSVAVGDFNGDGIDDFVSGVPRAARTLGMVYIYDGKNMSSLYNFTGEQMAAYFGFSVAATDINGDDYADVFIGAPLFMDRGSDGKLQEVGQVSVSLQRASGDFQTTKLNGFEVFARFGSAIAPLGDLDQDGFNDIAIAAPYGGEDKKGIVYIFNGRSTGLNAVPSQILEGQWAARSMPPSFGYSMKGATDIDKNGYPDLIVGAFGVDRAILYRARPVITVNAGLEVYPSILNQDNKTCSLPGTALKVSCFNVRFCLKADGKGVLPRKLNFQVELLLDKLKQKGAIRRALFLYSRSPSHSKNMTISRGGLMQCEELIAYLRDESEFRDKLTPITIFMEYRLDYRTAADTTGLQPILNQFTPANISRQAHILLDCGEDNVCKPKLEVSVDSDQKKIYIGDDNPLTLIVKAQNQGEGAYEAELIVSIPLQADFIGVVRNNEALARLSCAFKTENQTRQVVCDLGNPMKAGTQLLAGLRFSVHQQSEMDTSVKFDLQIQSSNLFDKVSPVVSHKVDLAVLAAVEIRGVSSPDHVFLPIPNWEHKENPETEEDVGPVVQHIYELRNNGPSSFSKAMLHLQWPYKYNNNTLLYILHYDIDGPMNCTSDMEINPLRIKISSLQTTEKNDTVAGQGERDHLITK
T1 sequence (P06756 891-1048 limits assumed): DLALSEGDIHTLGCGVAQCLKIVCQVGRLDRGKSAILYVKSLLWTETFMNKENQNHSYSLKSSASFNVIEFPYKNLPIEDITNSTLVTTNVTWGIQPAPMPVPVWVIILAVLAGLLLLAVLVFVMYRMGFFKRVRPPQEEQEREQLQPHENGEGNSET

Compound | IC50 (Integrin alpha-V/beta-3 [1]) | IC50 (Integrin alpha-V/beta-3 [2]) | Stability [3]
CC(C)[C@@H]1/C=C/[C@@H](Cc2ccccc2)NC(=O)[C@H](CC(=O)O)NC(=O)CNC(=O)[C@H](CCCNC(=N)N)NC1=O | 3.6 nM |  | 
C/C1=C\[C@@H](Cc2ccccc2)NC(=O)[C@H](CC(=O)O)NC(=O)CNC(=O)[C@H](CCCNC(=N)N)NC(=O)[C@@H]1C(C)C | 2.4 nM |  | 
CC(C)[C@@H]1/C=C(\Cl)[C@@H](Cc2ccccc2)NC(=O)[C@H](CC(=O)O)NC(=O)CNC(=O)[C@H](CCCNC(=N)N)NC1=O |  | 0.497 nM | Stable
